Like-named read-outs stand apart in the source and are kept apart here.
Assays:
Assay in all cases: Test A postemergence
Type in all cases: in vivo
corn (Zea mays) = details: Zea mays, post-emergence, 240 h, 125 g ai/ha; for plant injury at 125 g/ha: postemergence, visual injury rating after approximately 10 d, read-out: Corn plant response rating (0 to 100 scale, 0 no effect, 100 complete control); for Corn plant response rating (crop injury, 0 = no effect, 100 = complete kill) at 125 g/ha: Postemergence, visual injury after approximately 10 d, 0 to 100 scale where 0 is no effect and 100 is complete control
Outline: (§1)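 Seeded soil received test chemicals as a preemergence directed spray, and seedlings at one to two leaves, 2–10 cm tall, received them postemergence, in a non-phytotoxic, surfactant-containing solvent mixture. Pots were held in a greenhouse for approximately 10 d, then rated for injury from 0, no effect, to 100, complete control.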

[1] = system: wheat (Triticum aestivum); details: Triticum aestivum, post-emergence, 240 h, 125 g ai/ha
Outline: as §1

[2] = system: blackgrass (Alopecurus myosuroides); details: Alopecurus myosuroides, post-emergence, 240 h, 125 g ai/ha
Outline: as §1

[3] = system: pigweed (Amaranthus retroflexus); details: Amaranthus retroflexus, post-emergence, 240 h, 125 g ai/ha
Outline: as §1

[4] = system: Galium (catchweed bedstraw, Galium aparine); details: Galium, post-emergence, 240 h, 125 g ai/ha
Outline: as §1

[5] = system: ryegrass, Italian (Italian ryegrass, Lolium multiflorum); details: Lolium multiflorum, post-emergence, 240 h, 125 g ai/ha
Outline: as §1

[6] = postemergence, visual injury rating after approximately 10 d, read-out: Wheat plant response rating (0 to 100 scale, 0 no effect, 100 complete control)
[7] = postemergence, visual injury rating after approximately 10 d, read-out: Blackgrass plant response rating (0 to 100 scale, 0 no effect, 100 complete control)
[8] = postemergence, visual injury rating after approximately 10 d, read-out: Pigweed plant response rating (0 to 100 scale, 0 no effect, 100 complete control)
[9] = postemergence, visual injury rating after approximately 10 d, read-out: Galium plant response rating (0 to 100 scale, 0 no effect, 100 complete control)
[10] = postemergence, visual injury rating after approximately 10 d, read-out: Ryegrass, Italian plant response rating (0 to 100 scale, 0 no effect, 100 complete control)
[11] = Postemergence, visual injury after approximately 10 d, 0 to 100 scale where 0 is no effect and 100 is complete control, read-out: Plant response rating, Wheat
[12] = Postemergence, visual injury after approximately 10 d, 0 to 100 scale where 0 is no effect and 100 is complete control, read-out: Plant response rating, Blackgrass
[13] = Postemergence, visual injury after approximately 10 d, 0 to 100 scale where 0 is no effect and 100 is complete control, read-out: Plant response rating, Pigweed
[14] = Postemergence, visual injury after approximately 10 d, 0 to 100 scale where 0 is no effect and 100 is complete control, read-out: Plant response rating, Galium
[15] = Postemergence, visual injury after approximately 10 d, 0 to 100 scale where 0 is no effect and 100 is complete control, read-out: Plant response rating, Ryegrass, Italian

Compound | plant injury at 125 g/ha (corn (Zea mays)) [%] | plant injury at 125 g/ha [1, 6] [%] | pest or weed control at 125 g/ha [2, 7] [%] | pest or weed control at 125 g/ha [3, 8] [%] | pest or weed control at 125 g/ha [4, 9] [%] | pest or weed control at 125 g/ha [5, 10] [%] | Corn plant response rating (crop injury, 0 = no effect, 100 = complete kill) at 125 g/ha (corn (Zea mays)) [%] | plant injury at 125 g/ha [1, 11] [%] | pest or weed control at 125 g/ha [2, 12] [%] | pest or weed control at 125 g/ha [3, 13] [%] | pest or weed control at 125 g/ha [4, 14] [%] | pest or weed control at 125 g/ha [5, 15] [%]
Cc1c(F)ccc([C@H]2CNC(=O)[C@@H]2C(=O)Nc2ccc(F)c(F)c2F)c1F [Compound 830] | 0 | 0 | 20 | 0 | 30 | 20 |  |  |  |  |  | 
Cc1c(F)ccc([C@H]2CNC(=O)[C@@H]2C(=O)Nc2ccccc2C(F)(F)F)c1F [Compound 831] | 0 | 0 | 0 | 0 | 20 | 20 |  |  |  |  |  | 
Cc1c(F)ccc([C@H]2CNC(=O)[C@@H]2C(=O)Nc2ccccc2S(C)(=O)=O)c1F [Compound 832] | 0 | 0 | 0 | 0 | 50 | 20 |  |  |  |  |  | 
Cc1c(F)ccc([C@H]2CN(C)C(=O)[C@@H]2C(=O)Nc2cccc(F)c2F)c1F [Compound 834] | 40 | 30 | 60 | 20 | 60 | 60 |  |  |  |  |  | 
Cc1c(F)ccc([C@H]2CN(C)C(=O)[C@@H]2C(=O)Nc2ccc(F)cc2F)c1F [Compound 835] | 30 | 0 | 40 | 20 | 30 | 50 |  |  |  |  |  | 
CSc1ccccc1NC(=O)[C@H]1C(=O)N(C)C[C@@H]1c1cc(C)cc(F)c1 [Compound 851] | 0 | 20 | 0 | 0 | 30 | 0 |  |  |  |  |  | 
COc1cc([C@H]2CN(C)C(=O)[C@@H]2C(=O)Nc2ccccc2F)cc(C(F)(F)F)c1 [Compound 855] | 70 | 50 | 60 | 20 | 0 | 20 |  |  |  |  |  | 
CN1C[C@H](c2cccc(OC(F)(F)C(F)F)c2)[C@@H](C(=O)Nc2ccccc2S(C)(=O)=O)C1=O [Compound 864] | 60 | 50 | 50 | 20 | 20 | 50 |  |  |  |  |  | 
CN1C[C@H](c2cc(F)cc(F)c2)[C@@H](C(=O)Nc2ccc(C(F)(F)F)cn2)C1=O [Compound 869] | 0 | 0 | 0 | 0 | 0 | 0 |  |  |  |  |  | 
CN1C[C@H](c2cc(F)cc(F)c2)[C@@H](C(=O)Nc2ccc(C(F)(F)F)nc2)C1=O [Compound 870] | 0 | 0 | 0 | 0 | 0 | 0 |  |  |  |  |  | 
CN1C[C@H](c2cccc(COC(F)F)c2)[C@@H](C(=O)Nc2cccc(F)c2F)C1=O [Compound 873] | 70 | 30 | 50 | 30 | 50 | 40 |  |  |  |  |  | 
CN1C[C@H](c2cc(F)c(F)c(F)c2)[C@@H](C(=O)Nc2cccc(F)c2F)C1=O [Compound 879] | 60 | 70 | 70 | 20 | 50 | 70 |  |  |  |  |  | 
CN1C[C@H](c2cc(F)c(F)c(F)c2)[C@@H](C(=O)Nc2ccccc2S(C)(=O)=O)C1=O [Compound 880] | 20 | 40 | 0 | 50 | 60 | 50 |  |  |  |  |  | 
COc1c(F)ccc([C@H]2CNC(=O)[C@@H]2C(=O)Nc2ccc(F)cc2F)c1Cl [Compound 883] | 0 | 0 | 0 | 0 | 0 | 0 |  |  |  |  |  | 
Cc1cc(C)cc([C@H]2CNC(=O)[C@@H]2C(=O)Nc2ccccc2F)c1 [Compound 888] | 0 | 0 | 20 | 0 | 0 | 0 |  |  |  |  |  | 
COc1c(F)ccc([C@H]2CN(C)C(=O)[C@@H]2C(=O)Nc2ccccc2F)c1Cl [Compound 892] | 0 | 0 | 0 | 0 | 20 | 60 |  |  |  |  |  | 
COc1c(F)ccc([C@H]2CN(C)C(=O)[C@@H]2C(=O)Nc2ccc(F)c(F)c2F)c1Cl [Compound 895] | 80 | 40 | 60 | 40 | 70 | 60 |  |  |  |  |  | 
COc1c(F)ccc([C@H]2CN(C)C(=O)[C@@H]2C(=O)Nc2ccccc2C(F)(F)F)c1Cl [Compound 896] | 20 | 30 | 40 | 20 | 40 | 50 |  |  |  |  |  | 
COc1c(F)ccc([C@H]2CN(C)C(=O)[C@@H]2C(=O)Nc2ccccc2S(C)(=O)=O)c1Cl [Compound 897] | 30 | 30 | 30 | 0 | 40 | 20 |  |  |  |  |  | 
CCOc1ccc([C@H]2CN(C)C(=O)[C@@H]2C(=O)Nc2cccc(F)c2F)cc1 [Compound 904] | 0 | 0 | 30 | 0 | 30 | 0 |  |  |  |  |  | 
Cc1cc(C)cc([C@H]2CN(C)C(=O)[C@@H]2C(=O)Nc2cccc(F)c2F)c1 [Compound 911] | 80 | 50 | 50 | 0 | 40 | 70 |  |  |  |  |  | 
CN1CC[C@H](c2cccc(Cl)c2)[C@@H](C(=O)Nc2cccc(Cl)c2F)C1=O [Compound 924] |  |  |  |  |  |  | 0 | 0 | 0 | 0 | 0 | 0
Cc1cc([C@H]2CN(C)C(=O)[C@@H]2C(=O)Nc2ccccc2S(C)(=O)=O)ccc1Cl [Compound 944] |  |  |  |  |  |  | 30 | 40 | 60 | 30 | 20 | 30
CC(C)Oc1ccc([C@H]2CN(C)C(=O)[C@@H]2C(=O)Nc2ccc(F)cc2F)cc1 [Compound 954] |  |  |  |  |  |  | 0 | 0 | 0 | 0 | 0 | 0

— patent publication US12077503B2, “Substituted cyclic amides and their use as herbicides” (FMC CORPORATION, priority 2015, dated 2024)
